Read-outs that look alike come from different tables or passages of the source. Marks after values point to notes of the source that are not given here.
Key:
[1] = test system: DNBS-Induced Inflammatory Bowel Disease Models in Rats; assay: Biological Example 4: DNBS-induced inflammatory bowel disease models in rats; format: in vivo, Wistar rats; conditions: 30 mg/Kg i.g. qd × 7; for Adhesion Degree of Colon / Colon weight to length ratio / Ulcer area of colon / inhibition in vivo at 30 mg/kg: day 7; for Body weight: Mean ± SD; for inhibition in vivo at 30 mg/kg: Rattus norvegicus, po, 168 h
Protocol: 102 male Wistar rats were fasted for 72 hours. A 5% glucose injection was administered subcutaneously twice during fasting. 88 rats with normal conditions and moderate body weight were selected from the fasting rats. The animals were randomly divided into 11 groups according to the body weight (see Table 11. Grouped Table).
The animals were anesthetized with ether after 72 hours fasting. A specially made gavage device was slowly inserted into the enteric cavity at 8 cm from the anus. The model control group and each test group were administered with 0.5 mL of 50 mg/mL DNBS in 30% ethanol solution. The normal control group was administered with 0.5 mL of 30% ethanol solution. The animals were inverted in anesthesia for 15 minutes. The day when the model was prepared was day 0 of the experiment. After 4 hours of DNBS induction, the corresponding drug or the corresponding volume of 1% CMC-Na was administered once per day. On day 7 of the experiment, the animals were euthanized to score the colon adhesion degree, measure the length of colon and ulcer area, weigh colon and calculate the colon weight to length ratio.
One-way ANOVA analysis of the length of colon and colon weight per length of rats was performed by SPSS22. Statistical analyses between groups were performed. The adhesion degree was scored. Mann-Whitney U non-parametric test was performed on ulcer area. Statistical analyses between groups were performed.
Calculation Formula of Inhibitory rate of weight increase per length: (Colon weight to length ratio in model group−Colon weight to length ratio in administration group)/(Colon weight to length ratio in model group−Colon weight to length ratio in blank group)

mice = assay: Biological Example 5: acute toxicity experiment of single oral administration in mice; format: in vivo; conditions: single oral 1000 mg/Kg, Mean ± SD
Protocol: The mice were fasted one day before the experiment. On the day of the experiment, 6 mice (ICR mice, body weight of 19-21 g, three females and three males) were selected in each experiment group. First of all, one female and one male were selected to orally give 1000 mg/Kg, and observed for 5-10 minutes. If there were no obvious side effects, the remaining 4 animals were orally given the same dose, and observed for 10-15 minutes. If no animal died, the animals were placed in a box to balancedly feed for 7 days. The state was observed and the body weight was recorded daily.
Observation Indexes within 0-15 Minutes after Administration
Activity: restlessness, hyperactivity
Nervous system response: tremor, spasm, convulsion, ataxia, posture abnormality, etc.
Autonomic nerve: exophthalmos, salivation, tears, urination (hematuria), diarrhea, piloerection, breathing, etc.
State of Animal: lethargy, hyperactivity, excitement, hair loss, diarrhea, abnormal behavior, death, etc.

[2] = read-out: Inhibitory rate of colon adhesion
[3] = read-out: Inhibitory rate of ulcer area of colon
[4] = read-out: Inhibitory rate of weight increase per length

SMILES | Adhesion Degree of Colon [1] [point] | Colon weight to length ratio [1] [mg/cm] | Ulcer area of colon [1] | Body weight ([1]; Day 1) [g] | Body weight ([1]; Day 2) [g] | Body weight ([1]; Day 3) [g] | Daily Body Weight (mice; Female mice, Day 1) [g] | Daily Body Weight (mice; Female mice, Day 2) [g] | Daily Body Weight (mice; Female mice, Day 3) [g] | Daily Body Weight (mice; Female mice, Day 4) [g] | Daily Body Weight (mice; Female mice, Day 5) [g] | Daily Body Weight (mice; Female mice, Day 6) [g] | Daily Body Weight (mice; Female mice, Day 7) [g] | Daily Body Weight (mice; Male mice, Day 1) [g] | Daily Body Weight (mice; Male mice, Day 2) [g] | Daily Body Weight (mice; Male mice, Day 3) [g] | Daily Body Weight (mice; Male mice, Day 4) [g] | Daily Body Weight (mice; Male mice, Day 5) [g] | Daily Body Weight (mice; Male mice, Day 6) [g] | Daily Body Weight (mice; Male mice, Day 7) [g] | other results
COCCN1C(=O)CCC(N2C(=O)c3c(N)ccc(O)c3C2=O)C1=O (stereo not shown) [Example 10, 4-amino-7-hydroxy-2-(1-(2-methoxyethyl)-2,6-dioxopiperidin-3-yl)isoindolin-1,3-dione] | 0.5 ± 0.5 | 93 ± 12 | 0.2 ± 0.5# cm^2 | 122.4 ± 6.7 | 122.1 ± 8.0 | 126.6 ± 9.8 | 19.2 ± 0.5 | 21.9 ± 0.4 | 22.4 ± 0.2 | 22.4 ± 0.2 | 22.9 ± 0.6 | 24.1 ± 1.5 | 24.2 ± 1.8 | 19.4 ± 0.3 | 24.4 ± 0.6 | 25.5 ± 0.9 | 25.5 ± 0.9 | 26.8 ± 0.9 | 29.2 ± 0.7 | 30.3 ± 0.7 | Body weight ([1]; Day 4): 136.9 ± 12.5 g; Body weight ([1]; Day 5): 143.7 ± 18.2 g; Body weight ([1]; Day 6): 144.9 ± 19.7 g; Body weight ([1]; Day 7): 160.8 ± 25.7 g; inhibition in vivo at 30 mg/kg [1, 2]: 81.1%; inhibition in vivo at 30 mg/kg [1, 3]: 91.7%; inhibition in vivo at 30 mg/kg [1, 4]: 81.2%
COCCN1C(=O)CCC(N2C(=O)c3c(F)c(F)c(F)c(F)c3C2=O)C1=O (stereo not shown) [Example 5, 4,5,6,7-tetrafluoro-2-(1-(2-methoxyethyl)-2,6-dioxopiperidin-3-yl)isoindolin-1,3-dione] | 0.8 ± 0.5 | 99 ± 14 | 0.2 ± 0.5 cm^2 | 126.7 ± 8.9 | 125.0 ± 11.0 | 126.9 ± 14.0 |  |  |  |  |  |  |  |  |  |  |  |  |  |  | Body weight ([1]; Day 4): 133.9 ± 13.3 g; Body weight ([1]; Day 5): 141.9 ± 14.9 g; Body weight ([1]; Day 6): 146.9 ± 13.9 g; Body weight ([1]; Day 7): 159.7 ± 14.3 g; inhibition in vivo at 30 mg/kg [1, 2]: 62.2%; inhibition in vivo at 30 mg/kg [1, 3]: 91.7%; inhibition in vivo at 30 mg/kg [1, 4]: 74.1%
COCCN1C(=O)CCC(N2C(=O)c3cccc(C)c3C2=O)C1=O (stereo not shown) [Example 24, 4-methyl-2-(1-(2-methoxyethyl)-2,6-dioxopiperidin-3-yl)-isoindolin-1,3-dione] | 0.8 ± 0.7 | 99 ± 18 | 0.3 ± 0.3 cm^2 | 129.1 ± 5.5 | 130.9 ± 10.4 | 133.2 ± 14.5 | 18.4 ± 0.7 | 22.4 ± 1.0 | 23.4 ± 1.0 | 23.6 ± 0.9 | 24.3 ± 0.6 | 24.7 ± 0.6 | 24.8 ± 1.5 | 17.7 ± 0.2 | 22.3 ± 0.7 | 24.5 ± 1.0 | 25.2 ± 1.0 | 27.2 ± 1.3 | 28.1 ± 2.0 | 28.9 ± 1.9 | Body weight ([1]; Day 4): 135.3 ± 13.6 g; Body weight ([1]; Day 5): 144.9 ± 12.6 g; Body weight ([1]; Day 6): 145.9 ± 13.3 g; Body weight ([1]; Day 7): 165.6 ± 12.1 g; inhibition in vivo at 30 mg/kg [1, 2]: 62.2%; inhibition in vivo at 30 mg/kg [1, 3]: 87.5%; inhibition in vivo at 30 mg/kg [1, 4]: 74.1%
COCCN1C(=O)CCC(F)(N2C(=O)c3cccc(N)c3C2=O)C1=O (stereo not shown) [Example 14, 4-amino-2-(1-(2-methoxyethyl)-3-fluoro-2,6-dioxopiperidin-3-yl)isoindolin-1,3-dione] | 0.8 ± 0.5 | 102 ± 18 | 0.1 ± 0.4# cm^2 | 126.2 ± 8.7 | 125.1 ± 10.5 | 129.5 ± 17.8 |  |  |  |  |  |  |  |  |  |  |  |  |  |  | Body weight ([1]; Day 4): 136.5 ± 19.7 g; Body weight ([1]; Day 5): 146.4 ± 19.4 g; Body weight ([1]; Day 6): 147.6 ± 19.9 g; Body weight ([1]; Day 7): 165.7 ± 20.8 g; inhibition in vivo at 30 mg/kg [1, 2]: 62.2%; inhibition in vivo at 30 mg/kg [1, 3]: 95.8%; inhibition in vivo at 30 mg/kg [1, 4]: 70.6%
COCCN1C(=O)CCC(N2C(=O)c3cccc(NC(C)=O)c3C2=O)C1=O (stereo not shown) [Example 1, 4-acetylamino-2-(1-(2-methoxyethyl)-2,6-dioxopiperidin-3-yl)isoindolin-1,3-dione] |  |  |  |  |  |  | 18.5 ± 0.1 | 22.8 ± 0.3 | 23.2 ± 0.7 | 24.0 ± 0.2 | 25.3 ± 1.6 | 25.7 ± 1.6 | 27.1 ± 1.1 | 20.1 ± 1.4 | 23.8 ± 1.4 | 24.9 ± 1.0 | 26.3 ± 1.2 | 27.7 ± 1.3 | 29.2 ± 1.4 | 29.4 ± 1.4 | 
COCCCN1C(=O)CCC(N2C(=O)c3cccc(F)c3C2=O)C1=O (stereo not shown) [Example 17, 4-fluoro-2-(1-(3-methoxypropyl)-2,6-dioxopiperidin-3-yl)isoindolin-1,3-dione] |  |  |  |  |  |  | 18.6 ± 1.0 | 21.9 ± 0.4 | 22.7 ± 0.4 | 22.7 ± 0.4 | 23.0 ± 0.4 | 23.1 ± 1.0 | 22.7 ± 1.2 | 19.0 ± 0.7 | 24.0 ± 0.7 | 24.6 ± 0.8 | 24.6 ± 0.8 | 26.1 ± 0.7 | 28.1 ± 0.6 | 29.3 ± 1.0 | 
CS(=O)(=O)CCN1C(=O)CCC(N2C(=O)c3cccc(N)c3C2=O)C1=O (stereo not shown) [Example 13, 4-amino-2-(1-(2-methylsulfonylethyl)-2,6-dioxopiperidin-3-yl)isoindolin-1,3-dione] |  |  |  |  |  |  | 18.8 ± 1.1 | 21.3 ± 0.3 | 21.8 ± 0.4 | 21.8 ± 0.4 | 23.0 ± 0.5 | 23.2 ± 0.9 | 23.6 ± 0.9 | 19.6 ± 0.7 | 23.1 ± 0.6 | 24.4 ± 0.9 | 24.4 ± 0.9 | 26.5 ± 0.5 | 28.3 ± 1.3 | 28.4 ± 0.8 | 
CCOCCN1C(=O)CCC(N2C(=O)c3cccc(N)c3C2=O)C1=O (stereo not shown) [Example 19, 4-amino-2-(1-(2-ethoxyethyl)-2,6-dioxopiperidin-3-yl)isoindolin-1,3-dione] |  |  |  |  |  |  | 18.0 ± 0.6 | 20.7 ± 1.1 | 21.3 ± 0.6 | 22.8 ± 0.3 | 23.2 ± 0.7 | 23.3 ± 1.2 | 23.0 ± 1.7 | 18.9 ± 1.2 | 20.7 ± 1.1 | 21.3 ± 0.6 | 25.0 ± 2.0 | 24.8 ± 1.9 | 26.5 ± 1.9 | 27.7 ± 2.2 | 

— patent US20220372013A2, “PIPERIDINE-2,6-DIONE DERIVATIVES AND CROHN'S DISEASE TREATING” (Tianjin Hemay Pharmaceutical Sci-Tech Co., Ltd, priority 2016, published 2022)
